Data taken from ChEMBL document CHEMBL1777769, “Synthesis and characterisation of a novel tubulin-directed DO3A-colchicine conjugate with potential theranostic features” (Bioorg Med Chem Lett, 2011).
The source made the active and inactive calls. No cut-off for these calls is given here.

Assays:
Type in all cases: functional, cell-based
OVCAR-3 [1] = experiment: Cytotoxicity against human OVCAR3 cells assessed as cell death after 24 hrs by trypan blue exclusion assay
OVCAR-3 [2] = experiment: Cytotoxicity against human OVCAR3 cells assessed as change in cell shape after 24 hrs by trypan blue exclusion assay
OVCAR-3 [3] = experiment: Cytotoxicity against human OVCAR3 cells assessed as reduction in viable cells after 24 hrs by trypan blue exclusion assay

Compound: COc1cc2c(c(OC)c1OC)-c1ccc(OC)c(=O)cc1[C@@H](NC(=O)CN1CCN(CC(=O)O)CCN(CC(=O)O)CCN(CC(=O)O)CC1)CC2
- Activity (OVCAR-3 [1]): Active
- Activity (OVCAR-3 [2]): Active

Compound: COc1cc2c(c(OC)c1OC)-c1ccc(OC)c(=O)cc1[C@@H](NC(C)=O)CC2
- Activity (OVCAR-3 [3]): Active
- Activity (OVCAR-3 [1]): Active
- Activity (OVCAR-3 [2]): Active
